From doi:10.1101/2025.02.26.640323, “Aggregation-Dependent Epitope Sequence and Modification Fingerprints of Anti-Aβ Antibodies” (bioRxiv, 2025)
Entries after “also recorded” stand apart in the source; their conditions may differ.

Legend:
[1] = tested on: Aβ vascular and parenchymal deposits in AD brain sections; assay: Immunohistochemistry on AD brain tissue with antibody pre-adsorption; set-up: species or system human; conditions: 1 μg Donanemabbs with 2.5 μg peptide; human AD brain
Description: Immunohistochemistry was performed on 4-μm paraffin sections. In brief, brain sections were deparaffinized in Roticlear (Carl Roth, Karlsruhe, Germany) and rehydrated in a descending series of ethanol. Activity of endogenous peroxidases was blocked by incubation in 0.3% H2O2 in PBS for 30 min. […] Antibodies and peptides were incubated on a rotator for 3 h at room temperature and reaction tubes were centrifuged at 13000 rpm for 5 min at the end of the incubation period. Control conditions included antibodies in 0.01 M PBS including 10% FCS without synthetic peptides. Adjacent paraffin-embedded sections from a human AD case were incubated overnight with the supernatants and sections were washed with 0.01 M PBS including 0.1 % Tergitol. For detection, biotinylated anti-human antibodies (6 μg/ml, Jackson ImmunoResearch, West Grove, Pennsylvania, USA #109-065-003) were used and staining was visualized with the ABC method with a Vectastain kit (Vector Laboratories, Newark, California, USA), diaminobenzidine as a chromogen and counterstaining with hematoxylin.

Aβ(−10–18) = assay: Deep mutational scans of 18-meric Aβ peptides on microarray; assay type: binding, human
[2] = tested on: amyloid precursor protein (APP770) residues 649–722; assay: Peptide microarray epitope pre-screening (overlapping 15-mers); assay type: binding, human; conditions: 0.5–1 μg/mL antibody
Description: Information regarding binding epitopes and /or immunogens for most of the tested Aβ-Abs has been published and is summarized in Table 1. However, the binding epitope information was derived from varying methodologies. To provide an initial side-by-side comparison we pre-screened all of the listed Aβ-Abs in array format using copies of peptide libraries and standard antibody concentrations of 0.5–1 μg/mL (Figure 1a). The library comprised the amyloid precursor protein (APP770) residues 649–722, corresponding to the canonical Aβ1–42 amino acid sequence with additional 23 amino terminal and 9 carboxy terminal residues. […] For optimal signal to noise ratios and ideal selectivity profiles on the microarrays, the Aβ-Ab concentrations were adjusted for 3D6, 82E1, 11H3, 80C2 and 7H3D6 (Figure 1 – figure- supplement 1) and (Appendix 1–7). […] Specifically, Donanemabbs, 2–48 and Aβ-pE3 were raised against AβpE3-x (Table 1) and were expected to show preference for Aβ peptides starting with a pE(3).
Figure 1. Microarray workflow and Aβ-Ab epitope pre-screening. (a) Schematic of the microarray workflow. The library comprised the amyloid precursor protein (APP) residues 649–722 (APP770 numbering), corresponding to Aβ residues −23 to 51, as a library of 15-mer peptides overlapping by 14AAs, copied in dozens, and probed for Aβ-Abs binding followed by analysis in MARTin. (b) The epitope screening binding data are summarized as a heatmap. Blue and red shades indicate the relative binding strength of the related arrayed peptides to the left and cognate Aβ-Ab on top. The blue – red scale is visualizing the normalized binding intensity for each antibody individually. The applied antibody concentrations ranged between 0.5–1 μg/mL.
The μSPOT assay was performed as previously described. […] Peptide arrays were synthesized using MultiPep RSi robot (CEM GmbH, Kamp-Lintford, Germany) on cellulose discs containing Fmoc-β-Ala linkers. Natural amino acid building blocks were purchased from IRIS (IRIS Biotech GmbH, Marktredwitz, Germany). Special building blocks employed in this study such as isomers, stereoisomers, phosphorylation and pyroglutamination […] modifications are listed here: Fmoc-L-Ser(PO(OBzl)OH)-OH (Iris – FAA1423), L-Pyroglutamic acid pentachlorophenyl ester (Novabiochem - 8.54203), Fmoc-L-Asp-OtBu (Iris – FAA1356), Fmoc-D-Asp-OtBu (Carbosolutions – CC05095) and Fmoc-D-Asp(tBu)-OH (Iris – FAA1309). Synthesis was carried out by deprotecting the Fmoc-group using 20% piperidine in dimethylformamide (DMF). Peptide chains were elongated using a coupling solution consisting of amino acids (0.5M) with oxyma (1M) and DIC (1M) in DMF (1:1:1). Coupling steps were carried out 3 times (30min), followed by capping (4% acetic anhydride in DMF). Discs were transferred into 96 deep-well plates for the work-up.

[3] = tested on: mixture of ten synthetic Aβ peptides; assay: IP-MS from mixture of ten synthetic Aβ peptides; assay type: binding; conditions: TOPAC matrix, 10ng/mL each peptide
[4] = tested on: PTM-carrying Aβ peptides (PTM-Aβ); assay: PTM-Aβ microarray, general; assay type: binding, human; conditions: general statement
Description: Specific PTMs might be associated with different stages of AD progression and severity, offering potential biomarkers for diagnosis and prognosis. Targeting PTMs represents a potential therapeutic strategy to prevent Aβ aggregation and neurotoxicity, thereby slowing disease progression. […] Therefore, a selected group of PTM-carrying Aβ peptides (PTM-Aβ) were incorporated into the Aβ chip to explore the potential binding preference of selected Aβ-Abs, under optimized concentrations (Figure 3). The antibodies were tested with both PTM-Aβ and the corresponding unmodified variants to provide a head-to-head comparison. This screening was performed in the presence of Aβ phosphorylated at positions Ser(8) or Ser(26), N-terminal pE at position 3, racemization/isomerization of Asp at position 1, and unmodified N-terminal variants. The dataset is divided into sections (Figure 3 a–f) for enhanced visualization, where each antibody was screened simultaneously against all peptides to locate their epitope preferences. […] A set of antibodies without reported PTM preference was applied here as controls (refer to Table 1), namely 11H3, 101–1-1, IC16, 82E1 and 3D6.
Figure 3. […] Blue and red shades indicate the binding strength over the related arrayed […] modified peptide shown on top and cognate anti-Aβ antibody to the left. […]

With “Donanemabbs: humanized monoclonal, biosimilar of Donanemab, Proteogenix (#PX-TA1549)” the “IHC immunoreactivity after pre-adsorption with Aβ1–40” value [1] was “not suppressed”, the “IHC immunoreactivity after pre-adsorption with Aβ3–40” value [1] was “not suppressed” and the “IHC immunoreactivity after pre-adsorption with AβpE3–40” value [1] was “efficiently suppressed; also recorded: effectively attenuated”. The “core motif / main contacts / epitope” value (Aβ(−10–18); 18-mer deep mutational scan, core position if >50% of exchanges reduce binding by >50%) was “EFRHDSGY”, the “residue conservation at Asp(1) and Ala(2)” value (Aβ(−10–18); Aβ1–18 deep mutational scan) was “Asp(1) and Ala(2) were not highly conserved” and the “Array: epitope identified in this study on microarrays” value ([2]; Aβ residue numbers, 15-mer peptides overlapping by 14AAs on cellulose conjugates, chemiluminescence) was 3–10. For the same substance, the “binding in epitope pre-screening” value ([2]; unmodified Aβ-related 15-mers, generic pre-screening conditions) was “detected Aβ(3-x) starting with non-cyclized Glu (3), Aβ(−3-x) as well as several other N-terminally elongated Aβ-related peptides and Aβ1-x; also recorded: clear signals with AβpE3-x and several other Aβ related peptides starting N-terminally of Glu(3), including Aβ1-x”, the “IP-MS signal of AβpE3–40” value [3] was “highly preferential binding” and the “preference for PTMs” value [4] was “exhibited the previously reported preferences for PTMs”.
